Results published in patent US20230129359A1, “MUSCARINIC RECEPTOR 4 ANTAGONISTS AND METHODS OF USE” (Neurocrine Biosciences, Inc., priority 2020, published 2023).

Target: T1, human M4 receptor (Homo sapiens, UniProt P08173)
T1 construct: expressed in transfected cells; host or cells: CHO cells
T1 sequence (P08173 1-479): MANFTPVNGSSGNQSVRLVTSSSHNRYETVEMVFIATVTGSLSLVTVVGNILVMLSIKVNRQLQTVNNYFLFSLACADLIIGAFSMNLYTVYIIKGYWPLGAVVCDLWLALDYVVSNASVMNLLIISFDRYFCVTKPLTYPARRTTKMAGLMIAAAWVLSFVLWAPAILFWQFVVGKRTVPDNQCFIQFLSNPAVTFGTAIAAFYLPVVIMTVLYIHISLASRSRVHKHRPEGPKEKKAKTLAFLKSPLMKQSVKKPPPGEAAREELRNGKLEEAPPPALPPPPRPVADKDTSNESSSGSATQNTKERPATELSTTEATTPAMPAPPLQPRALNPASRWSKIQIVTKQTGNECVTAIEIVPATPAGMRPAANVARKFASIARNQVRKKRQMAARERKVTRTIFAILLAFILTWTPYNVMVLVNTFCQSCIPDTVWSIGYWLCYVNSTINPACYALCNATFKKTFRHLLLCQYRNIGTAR
Assay: Radioligand ([3H]N-methylscopolamine) binding assay, membranes from CHO cells expressing human M4 receptor
Conditions: Ki against human M4 receptor; membranes from CHO cells; tritiated N-methylscopolamine 1.5 nM; read-out: K
How it was run: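 Ki values derive from displacement of tritiated N-methylscopolamine (1.5 nM) from human M4 receptor in CHO membranes. Membranes, radioligand and twelve-point compound series were incubated together at 37 °C for 90 minutes in pH 7.4 HEPES/NaCl/MgCl2/EDTA buffer. Rapid vacuum filtration over polyethylenimine-pretreated filters was followed by radioactivity counting.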

| SMILES | Ki [nM] |
| --- | --- |
| COc1ccc2nc(N3C[C@@H](C)N(C(=O)OC4CC5(C4)CN(Cc4ccc(F)cc4)C5)C[C@@H]3C)cnc2c1 [Compound 396, 2-[(4-fluorophenyl)methyl]-2-azaspiro[3.3]heptan-6-yl (2R,5S)-4-(6-methoxyquinoxalin-2-yl)-2,5-dimethylpiperazine-1-carboxylate] | 10 to 100 |
| C[C@@H]1CN(c2cnc3cc(F)ccc3n2)[C@@H](C)CN1C(=O)OC1CC2(C1)CN(Cc1ccc(F)cc1)C2 [Compound 397, 2-[(4-fluorophenyl)methyl]-2-azaspiro[3.3]heptan-6-yl (2R,5S)-4-(6-fluoroquinoxalin-2-yl)-2,5-dimethylpiperazin-1-carboxylate] | 10 to 100 |
| C[C@@H]1CN(c2cnc(C(F)(F)F)cn2)C[C@@H](C)N1C(=O)OC1CC2(C1)CN(Cc1ccc(F)cc1)C2 [Compound 398, 2-[(4-fluorophenyl)methyl]-2-azaspiro[3.3]heptan-6-yl (2R,6R)-2,6-dimethyl-4-[5-(trifluoromethyl)pyrazin-2-yl]piperazine-1-carboxylate] | 10 to 100 |
| C[C@@H]1CN(c2cnc(C(F)(F)F)cn2)C[C@H](C)N1C(=O)OC1CC2(C1)CN(Cc1ccc(F)cc1)C2 [Compound 399, 2-[(4-fluorophenyl)methyl]-2-azaspiro[3.3]heptan-6-yl (2R,6S)-2,6-dimethyl-4-[5-(trifluoromethyl)pyrazin-2-yl]piperazine-1-carboxylate] | 10 to 100 |
| C[C@@H]1CN(c2cnc(C(F)(F)F)cn2)[C@@H](C)CN1C(=O)OC1CC2(C1)CN(Cc1ccc(F)cc1)C2 [Compound 400, 2-[(4-fluorophenyl)methyl]-2-azaspiro[3.3]heptan-6-yl (2R,5S)-2,5-dimethyl-4-[5-(trifluoromethyl)pyrazin-2-yl]piperazine-1-carboxylate] | 10 to 100 |
| C[C@@H]1CN(c2nc3ccc(F)cc3s2)C[C@@H](C)N1C(=O)OC1CC2(C1)CN(Cc1ccc(C(N)=O)cc1)C2 [Compound 402, 2-[(4-carbamoylphenyl)methyl]-2-azaspiro[3.3]heptan-6-yl (2R,6R)-4-(6-fluoro-1,3-benzothiazol-2-yl)-2,6-dimethylpiperazine-1-carboxylate] | 10 to 100 |
| C[C@@H]1CN(c2nc3ccc(C(F)(F)F)cc3s2)C[C@H](C)N1C(=O)OC1CC2(C1)CN(Cc1ccncc1)C2 [Compound 416, 2-(pyridin-4-ylmethyl)-2-azaspiro[3.3]heptan-6-yl (2R,6)S-2,6-dimethyl-4-[6-(trifluoromethyl)-1,3-benzothiazol-2-yl]piperazine-1-carboxylate] | < 10 |
| C[C@@H]1CN(c2ncc3ccccc3n2)C[C@H](C)N1C(=O)OC1CC2(C1)CN(Cc1ccncc1)C2 [Compound 421, 2-(pyridin-4-ylmethyl)-2-azaspiro[3.3]heptan-6-yl (2R,6S)-2,6-dimethyl-4-(quinazolin-2-yl)piperazine-1-carboxylate] | 100 to 1000 |
| C[C@@H]1CN(c2nc3ccc(C(F)(F)F)cc3o2)C[C@H](C)N1C(=O)OC1CC2(C1)CN(Cc1ccccc1)C2 [Compound 428, 2-benzyl-2-azaspiro[3.3]heptan-6-yl (2R,6S)-2,6-dimethyl-4-[6-(trifluoromethyl)-1,3-benzoxazol-2-yl]piperazine-1-carboxylate] | < 10 |
| C[C@@H]1CN(c2nc3ccc(C(F)(F)F)cc3o2)C[C@@H](C)N1C(=O)OC1CC2(C1)CN(Cc1ccccc1)C2 [Compound 429, 2-benzyl-2-azaspiro[3.3]heptan-6-yl (2R,6R)-2,6-dimethyl-4-[6-(trifluoromethyl)-1,3-benzoxazol-2-yl]piperazine-1-carboxylate] | 10 to 100 |
| C[C@@H]1CN(c2nc3ccc(C(F)(F)F)cc3o2)[C@@H](C)CN1C(=O)OC1CC2(C1)CN(Cc1ccccc1)C2 [Compound 430, 2-benzyl-2-azaspiro[3.3]heptan-6-yl (2R,5S)-2,5-dimethyl-4-[6-(trifluoromethyl)-1,3-benzoxazol-2-yl]piperazine-1-carboxylate] | < 10 |
| C[C@@H]1CN(c2nc3ncc(C(F)(F)F)cc3s2)C[C@H](C)N1C(=O)OC1CC2(C1)CN(Cc1ccccc1)C2 [Compound 431, 2-benzyl-2-azaspiro[3.3]heptan-6-yl (2R,6S)-2,6-dimethyl-4-[6-(trifluoromethyl)-[1,3]thiazolo[4,5-b]pyridin-2-yl]piperazine-1-carboxylate] | 10 to 100 |
| C[C@@H]1CN(c2nc3ncc(C(F)(F)F)cc3s2)C[C@@H](C)N1C(=O)OC1CC2(C1)CN(Cc1ccccc1)C2 [Compound 432, 2-benzyl-2-azaspiro[3.3]heptan-6-yl (2R,6R)-2,6-dimethyl-4-[6-(trifluoromethyl)-[1,3]thiazolo[4,5-b]pyridin-2-yl]piperazine-1-carboxylate] | 10 to 100 |
| C[C@@H]1CN(c2nc3ncc(C(F)(F)F)cc3s2)[C@@H](C)CN1C(=O)OC1CC2(C1)CN(Cc1ccccc1)C2 [Compound 433, 2-benzyl-2-azaspiro[3.3]heptan-6-yl (2R,5S)-2,5-dimethyl-4-[6-(trifluoromethyl)-[1,3]thiazolo[4,5-b]pyridin-2-yl]piperazine-1-carboxylate] | 10 to 100 |
| C[C@@H]1CN(c2nc3ccc(C#N)cc3s2)[C@@H](C)CN1C(=O)OC1CC2(C1)CN(Cc1ccccc1)C2 [Compound 435, 2-benzyl-2-azaspiro[3.3]heptan-6-yl (2R,5S)-4-(6-cyano-1,3-benzothiazol-2-yl)-2,5-dimethylpiperazine-1-carboxylate] | 100 to 1000 |
| O=C(OC1CC2(C1)CN(Cc1ccccc1)C2)N1C2COCC1CN(c1nc3ccc(C(F)(F)F)cc3s1)C2 [Compound 437, 2-benzyl-2-azaspiro[3.3]heptan-6-yl 7-[6-(trifluoromethyl)-1,3-benzothiazol-2-yl]-3-oxa-7,9-diazabicyclo[3.3.1]nonane-9-carboxylate] | 10 to 100 |
| C[C@@H]1CN(c2nc3cc(F)ccc3s2)C[C@H](C)N1C(=O)OC1CC2(C1)CN(Cc1ccccc1)C2 [Compound 438, 2-benzyl-2-azaspiro[3.3]heptan-6-yl (2R,6S)-4-(5-fluoro-1,3-benzothiazol-2-yl)-2,6-dimethylpiperazine-1-carboxylate] | < 10 |
| C[C@@H]1CN(c2nc3cc(F)ccc3s2)C[C@@H](C)N1C(=O)OC1CC2(C1)CN(Cc1ccccc1)C2 [Compound 439, 2-benzyl-2-azaspiro[3.3]heptan-6-yl (2R,6R)-4-(5-fluoro-1,3-benzothiazol-2-yl)-2,6-dimethylpiperazine-1-carboxylate] | 10 to 100 |
| C[C@@H]1CN(c2nc3cc(F)ccc3s2)[C@@H](C)CN1C(=O)OC1CC2(C1)CN(Cc1ccccc1)C2 [Compound 440, 2-benzyl-2-azaspiro[3.3]heptan-6-yl (2R,5S)-4-(5-fluoro-1,3-benzothiazol-2-yl)-2,5-dimethylpiperazine-1-carboxylate] | < 10 |
| C[C@@H]1CN(c2nc3cc(F)ccc3o2)C[C@H](C)N1C(=O)OC1CC2(C1)CN(Cc1ccccc1)C2 [Compound 441, 2-benzyl-2-azaspiro[3.3]heptan-6-yl (2R,6S)-4-(5-fluoro-1,3-benzoxazol-2-yl)-2,6-dimethylpiperazine-1-carboxylate] | 10 to 100 |
| C[C@@H]1CN(c2nc3cc(F)ccc3o2)C[C@@H](C)N1C(=O)OC1CC2(C1)CN(Cc1ccccc1)C2 [Compound 442, 2-benzyl-2-azaspiro[3.3]heptan-6-yl (2R,6R)-4-(5-fluoro-1,3-benzoxazol-2-yl)-2,6-dimethylpiperazine-1-carboxylate] | 100 to 1000 |
